{"source": "patent US12509451B2", "about": "“Heteroaryl amide inhibitors of CD38” (NAPA THERAPEUTICS LTD., priority 2020, dated 2025)", "key": {"[1]": {"system": "human liver microtissues (hepatocytes, Kupffer cells, endothelial and stellate cells) in NASH induction media", "test": "Human 3D NASH model (InSphero Human 3D InSight), release of inflammatory markers", "assay_type": "cell-based", "conditions": "supernatant, day 5", "procedure": "The efficacy of Compound 35 was also determined in a NASH model (see InSphero Human 3D InSight™ Brunswick, ME) to investigate the effect of the molecule on the pathophysiological phenotype of NASH such as release of inflammatory markers. The microtissue model used is a co-culture of 4 different cell types of human liver cells (hepatocytes, Kupffer cells, endothelial and stellate cells) cultured for 10 days in a NASH induction media containing FFA, LPS and high levels of sugars. In the LEAN group the microtissues were cultured for 10 days in physiological-like medium. The reference compound, Selonsertib, a selective ASK1 inhibitor, was used as a down regulator of inflammatory markers. Cytokine and chemokine release in the supernatant were measured at day 5 using Magnetic Luminex® Assay (R&D Systems)."}, "CD38 [2]": {"target": "T1, CD38 (Mus musculus, UniProt P56528)", "T1 construct": "aged mice (male C57BL6/J, 22 months old) were fasted for 4 hr; from tissue; host or cells: C57BL6/J mice (aged, DIO obese or LPS-challenged); liver, spleen, plasma", "T1 sequence (P56528 1-304)": "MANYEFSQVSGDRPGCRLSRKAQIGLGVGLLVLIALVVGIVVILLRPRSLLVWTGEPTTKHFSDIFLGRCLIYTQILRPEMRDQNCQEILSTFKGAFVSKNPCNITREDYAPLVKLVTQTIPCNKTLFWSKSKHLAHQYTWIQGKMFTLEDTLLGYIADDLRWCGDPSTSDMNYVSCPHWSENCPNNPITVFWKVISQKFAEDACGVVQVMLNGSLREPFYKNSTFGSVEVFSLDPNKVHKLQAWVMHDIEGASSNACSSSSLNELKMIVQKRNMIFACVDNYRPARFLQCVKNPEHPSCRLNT", "test": "LPS-induced inflammation in mice, cytokines quantification in plasma", "assay_type": "in vivo", "procedure": "The in vivo efficacy of Compound 39 against the human CD38 enzyme after LPS challenge was assessed. The effects of Compound 39 (10 mg/kg and 30 mg/kg) on inflammato cytokines, inflammation markers and NAD+ levels at 4 h and 8 h points after LPS-induced inflammation in 12 weeks old male C57BL/6J mice were evaluated.\nAnimals were euthanized by terminal cardiac blood puncture immediately after terminal CO2, 4 h and 8 h after LPS administration. At necropsy, the tissues (Liver, Plasma, Spleen, Kidney, Lungs, Heart, Visceral Adipose Tissue, Muscle-Gastrocnemius) were collected and quick frozen in liquid nitrogen. The blood was collected in a BD Microtainer® K2EDTA Additive Tube, centrifuge at 1000 g for 10 min at 4° C. and plasma was store at −80° C.)."}, "[3]": {"target": "T2, recombinant rat CD38 Protein (Rattus norvegicus, UniProt Q64244)", "T2 construct": "purchased Sino Biological", "T2 sequence (Q64244 1-303)": "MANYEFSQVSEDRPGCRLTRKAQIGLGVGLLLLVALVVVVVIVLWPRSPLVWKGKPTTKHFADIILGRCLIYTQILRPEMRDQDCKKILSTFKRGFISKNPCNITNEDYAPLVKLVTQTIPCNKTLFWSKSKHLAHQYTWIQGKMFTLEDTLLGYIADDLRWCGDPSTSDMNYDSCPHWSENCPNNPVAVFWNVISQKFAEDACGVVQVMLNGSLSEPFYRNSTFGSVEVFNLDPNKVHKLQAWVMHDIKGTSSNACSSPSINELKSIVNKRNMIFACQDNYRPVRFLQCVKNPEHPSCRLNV", "test": "Fluorescence-based NAD+ hydrolase activity assay with rat recombinant CD38 protein (Assay 6)", "assay_type": "biochemical", "conditions": "read-out: Assay 6 Arithmetic mean IC50", "procedure": "This protocol was modified from the following references: Muller et al. (1983); Schultz et al. (2018); Matalonga et al. (2017); and de Oliveira et al. (2018), supra.\nNAD+ hydrolase activity of the rat recombinant CD38 protein treated with test compounds was measured using a fluorescence-based assay. Briefly, recombinant rat CD38 Protein (Sino Biological) was resuspended in 44 μl/well of Sucrose-Tris Buffer (Sucrose 0.25 M, Tris pH 7.4 40 mM) and plated in a 96 well black plate (CORNING) at a density of 2.5 ng/well.\nEach test compound was received in a powder state and dissolved in DMSO as a 25 mM stock solution. Each test compound was serially diluted in order to generate a dose-response curve. […]\nThe reaction was started adding nicotinamide 1,N^6-etheno-adenine dinucleotide (Sigma Aldrich) to reach a final concentration of 80 µM. The samples were excited at 321-15 nm and the emission of fluorescence was measured at 410-20 nm at 37° C. every minute for 1 hr in a Clariostar Microplate® reader (BMG LABTECH). NAD+ hydrolase activity was calculated as the slope of the linear portion of the fluorescence-time curve using the MARS data analysis software (BMG LABTECH). The data were uploaded in the Collaborative Drug Design (CDD) Software and for each compound the IC50 was calculated by the software. […] For each plate, the z-factor was also calculated as a plate quality using the CDD software."}, "CD38 [4]": {"target": "T1, CD38", "test": "LPS-induced inflammation in mice, gene expression analysis in spleen and liver", "assay_type": "in vivo"}, "[5]": {"conditions": "4 hour post LPS challenge, 10 mg/kg"}, "[6]": {"conditions": "4 hour post LPS challenge, 30 mg/kg"}, "[7]": {"conditions": "8 h post LPS challenge, 10 mg/kg and 30 mg/kg"}}}
{"compound": "COc1cc(C(=O)Nc2ccnc(C(F)(F)F)c2)nc(-n2ccnc2)c1", "note": "[Compound 35, 6-(1H-imidazol-1-yl)-4-methoxy-N-(2-(trifluoromethyl)pyridin-4-yl)picolinamide]", "values": [{"measurement": "release of NASH-induced inflammatory marker IL-8", "setting": "[1]", "value": "effectiveness in downregulating"}, {"measurement": "release of NASH-induced inflammatory marker IP-10/CXCL-10", "setting": "[1]", "value": "effectiveness in downregulating"}, {"measurement": "release of NASH-induced inflammatory marker MIP-1α/CCL3", "setting": "[1]", "value": "effectiveness in downregulating"}, {"measurement": "release of NASH-induced inflammatory marker TNFα", "setting": "[1]", "value": "effectiveness in downregulating"}]}
{"compound": "COCCOc1cc(C(=O)Nc2ccnc(C(F)(F)F)c2)nc(-n2ccnc2)n1", "note": "[Compound 39, 2-(1H-imidazol-1-yl)-6-(2-methoxyethoxy)-N-(2-(trifluoromethyl)pyridin-4-yl)pyrimidine-4-carboxamide]", "values": [{"measurement": "decrease of plasma IL-6", "setting": "CD38 [2]; [5]", "value": 43, "unit": "%"}, {"measurement": "decrease of plasma TNFα", "setting": "CD38 [2]; [5]", "value": 22, "unit": "%"}, {"measurement": "plasma IP-10", "setting": "CD38 [2]; 4 hour post LPS challenge, 10 mg/kg and 30 mg/kg", "value": "statistically significant decrease"}, {"measurement": "decrease of plasma IL-6", "setting": "CD38 [2]; [6]", "value": 75, "unit": "%"}, {"measurement": "decrease of plasma TNFα", "setting": "CD38 [2]; [6]", "value": 58, "unit": "%"}, {"measurement": "plasma IL-6", "setting": "CD38 [2]; [7]", "value": "statistically significant decrease"}, {"measurement": "plasma IP-10", "setting": "CD38 [2]; [7]", "value": "statistically significant decrease"}, {"measurement": "plasma TNFα", "setting": "CD38 [2]; [7]", "value": "statistically significant decrease"}, {"measurement": "IC50", "setting": "[3]", "value": "1 to 50", "unit": "nM"}, {"measurement": "CD38 expression in liver", "setting": "CD38 [4]; liver, 10 mg/kg and 30 mg/kg, 8 hour post LPS challenge", "value": "statistically significant decrease"}, {"measurement": "IFNγ expression levels in liver", "setting": "CD38 [4]; liver, after LPS challenge", "value": "statistically significant decrease"}, {"measurement": "IL-1β expression levels in liver", "setting": "CD38 [4]; liver, after LPS challenge", "value": "statistically significant decrease"}, {"measurement": "IL-6 expression levels in liver", "setting": "CD38 [4]; liver, after LPS challenge", "value": "statistically significant decrease"}, {"measurement": "IP-10 expression levels in liver", "setting": "CD38 [4]; liver, after LPS challenge", "value": "statistically significant decrease"}, {"measurement": "MCP1 expression levels in liver", "setting": "CD38 [4]; liver, after LPS challenge", "value": "statistically significant decrease"}, {"measurement": "MIP1α expression levels in liver", "setting": "CD38 [4]; liver, after LPS challenge", "value": "statistically significant decrease"}, {"measurement": "MIP2 expression levels in liver", "setting": "CD38 [4]; liver, after LPS challenge", "value": "statistically significant decrease"}, {"measurement": "RANTES expression levels in liver", "setting": "CD38 [4]; liver, after LPS challenge", "value": "statistically significant decrease"}, {"measurement": "TNFα expression levels in liver", "setting": "CD38 [4]; liver, after LPS challenge", "value": "statistically significant decrease"}, {"measurement": "CD38 expression in spleen", "setting": "CD38 [4]; spleen, after LPS challenge", "value": "no significant changes"}, {"measurement": "IFNγ expression levels in spleen", "setting": "CD38 [4]; spleen, after LPS challenge", "value": "statistically significant decrease"}, {"measurement": "IL-1β expression levels in spleen", "setting": "CD38 [4]; spleen, after LPS challenge", "value": "statistically significant decrease"}, {"measurement": "IL-6 expression levels in spleen", "setting": "CD38 [4]; spleen, after LPS challenge", "value": "statistically significant decrease"}, {"measurement": "IP-10 expression levels in spleen", "setting": "CD38 [4]; spleen, after LPS challenge", "value": "statistically significant decrease"}, {"measurement": "MCP1 expression levels in spleen", "setting": "CD38 [4]; spleen, after LPS challenge", "value": "statistically significant decrease"}, {"measurement": "MIP1α expression levels in spleen", "setting": "CD38 [4]; spleen, after LPS challenge", "value": "statistically significant decrease"}, {"measurement": "MIP2 expression levels in spleen", "setting": "CD38 [4]; spleen, after LPS challenge", "value": "statistically significant decrease"}, {"measurement": "RANTES expression levels in spleen", "setting": "CD38 [4]; spleen, after LPS challenge", "value": "statistically significant decrease"}, {"measurement": "TNFα expression levels in spleen", "setting": "CD38 [4]; spleen, after LPS challenge", "value": "statistically significant decrease"}]}
